Laboratory results published in the NIST ThermoML archive (doi:10.1016/j.jct.2016.08.006).

What was measured:
[1] = molar heat capacity at constant pressure; conditions: 101.3 kPa, Liquid, Small sample (50 mg) DSC
[2] = molar heat capacity at constant pressure; xn = mol fraction of the nth substance listed; conditions: 101.3 kPa, Liquid, Small sample (50 mg) DSC, x2 = 0

CNCCN(C)C [N,N,N'-trimethylethylenediamine]
[1]
Conditions	molar heat capacity at constant pressure [J/K/mol]
303.2 K	258.3
308.2 K	260
313.2 K	262.7
318.2 K	265.3
323.2 K	269.2
328.2 K	272.7
333.2 K	276
338.2 K	278.9
343.2 K	281.3
348.2 K	283.4
353.2 K	286.6

NCCN1CCNCC1 [N-(β-aminoethyl)piperazine)]
[1]
Conditions	molar heat capacity at constant pressure [J/K/mol]
303.2 K	289.7
308.2 K	290.8
313.2 K	293.1
318.2 K	294.7
323.2 K	296.9
328.2 K	298.5
333.2 K	300.7
338.2 K	302.2
343.2 K	303.3
348.2 K	303.6
353.2 K	304.6

Cc1ccccc1 [toluene]
[1]
Conditions	molar heat capacity at constant pressure [J/K/mol]
303.2 K	159.1
308.2 K	160.4
313.2 K	161.6
318.2 K	163
323.2 K	164.1
328.2 K	165.5
333.2 K	167
338.2 K	168.6
343.2 K	170.4
348.2 K	172.8
353.2 K	175.1

O [water]
[1]
Conditions	molar heat capacity at constant pressure [J/K/mol]
303.2 K	75.26
308.2 K	75.27
313.2 K	75.29
318.2 K	75.31
323.2 K	75.29
328.2 K	75.32
333.2 K	75.41
338.2 K	75.44
343.2 K	75.48
348.2 K	75.55
353.2 K	75.78

O [water] + CNCCN(C)C
[2]
Conditions	molar heat capacity at constant pressure [J/K/mol]
303.2 K	75.26
308.2 K	75.27
313.2 K	75.29
318.2 K	75.31
323.2 K	75.29
328.2 K	75.32
333.2 K	75.41
338.2 K	75.44
343.2 K	75.48
348.2 K	75.55
353.2 K	75.78

O [water] + NCCN1CCNCC1
[2]
Conditions	molar heat capacity at constant pressure [J/K/mol]
303.2 K	75.26
308.2 K	75.27
313.2 K	75.29
318.2 K	75.31
323.2 K	75.29
328.2 K	75.32
333.2 K	75.41
338.2 K	75.44
343.2 K	75.48
348.2 K	75.55
353.2 K	75.78
